Data reported in patent US10702506B2, “Small molecule inhibitors of pendrin ion exchange and pharmaceutical compositions” (THE REGENTS OF THE UNIVERSITY OF CALIFORNIA, priority 2016, dated 2020).

How the values were obtained:
murine pendrin = molecular target: T1, murine pendrin (Mus musculus, UniProt Q9R155); experiment: BCECF intracellular pH assay of Cl−/HCO3− exchange in FRT cells expressing murine pendrin; type: cell-based
T1 construct: expressed in transfected cells
T1 sequence (Q9R155 1-780): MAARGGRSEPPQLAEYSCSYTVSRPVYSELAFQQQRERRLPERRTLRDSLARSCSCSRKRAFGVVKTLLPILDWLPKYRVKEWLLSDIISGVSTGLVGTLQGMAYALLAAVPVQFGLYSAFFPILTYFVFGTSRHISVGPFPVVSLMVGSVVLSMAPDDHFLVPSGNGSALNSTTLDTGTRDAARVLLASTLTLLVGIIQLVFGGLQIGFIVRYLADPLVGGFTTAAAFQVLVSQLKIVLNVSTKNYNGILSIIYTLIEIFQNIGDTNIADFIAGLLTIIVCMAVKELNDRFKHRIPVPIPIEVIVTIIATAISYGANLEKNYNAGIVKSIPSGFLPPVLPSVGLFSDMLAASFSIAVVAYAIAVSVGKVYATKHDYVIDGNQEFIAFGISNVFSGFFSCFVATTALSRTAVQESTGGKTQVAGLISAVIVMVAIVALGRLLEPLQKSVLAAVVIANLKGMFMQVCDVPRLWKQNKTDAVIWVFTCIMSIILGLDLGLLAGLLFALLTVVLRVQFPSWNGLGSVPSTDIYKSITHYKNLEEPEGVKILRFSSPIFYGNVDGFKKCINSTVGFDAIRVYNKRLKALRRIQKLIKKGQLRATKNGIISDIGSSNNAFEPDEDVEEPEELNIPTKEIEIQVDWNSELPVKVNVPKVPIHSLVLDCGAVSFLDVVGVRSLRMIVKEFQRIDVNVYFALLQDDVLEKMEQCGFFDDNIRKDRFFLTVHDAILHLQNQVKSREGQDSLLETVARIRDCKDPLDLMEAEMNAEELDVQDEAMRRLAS
Description: Pendrin-mediated exchange of Cl^− with SCN^−, I^− or NO3^− was measured from the kinetics of YFP fluorescence quenching in a BMG FLUOstar Omega platereader. Pendrin/YFP-expressing FRT cells were washed in PBS and transport measured following a 70-mM gradient of SCN^−, I^− or NO3^−. Pendrin-mediated Cl^−/HCO3^− exchange was measured from the kinetics of cytoplasmic pH (pHi) using BCECF-AM (Invitrogen). Pendrin-expressing FRT cells in HCO3^−-containing buffer (in mM: 120 NaCl, 5 KCl, 1 CaCl2), 1 MgSO4, 10 glucose, 5 Hepes, 25 NaHCO3^−; pH 7.4; 95% O2/5% CO2 equilibrated) were exposed to a Cl^−-free buffer (gluconate replacing Cl^−) to drive Cl^− efflux and HCO3^− influx.
Pendrin-mediated Cl^−/HCO3^− exchange was measured from the kinetics of intracellular pH, using BCECF fluorescence as a cytoplasmic pH sensor, following extracellular addition of gluconate in HCO3^−/CO2-containing buffer to drive Cl-efflux, HCO3^− influx, and consequent cytoplasmic alkalinization (FIG. 7D). […] YFP-based fluorescence quenching assays in COS-7 cells were established to measure AE1 (Slc4a1), CLD (Slc26a3) and NCC (Slc12a3) activities. […] A YFP-V163S fluorescence quenching assay in FRT cells was used to measure NKCC1 activity in which cells equilibrated gluconate-substituted PBS buffer were exposed to a Cl^−-containing solution containing 75 mM Na^+ and 75 mM K^+.

CaCC = experiment: Short-circuit current (Isc) analysis in IL-13-treated HBE cells, ATP response; type: cell-based, human; conditions: 25 μM, 30 min pre-treatment
Description: Further experiments were done with PDSinh-A01 because of its greater inhibition potency for Cl^−/HCO3^− exchange than PDSinh-C01. To investigate PDSinh-A01 specificity, the major ion transport pathways in HBE cells were studied by short-circuit current (Isc) analysis. Cells were treated with IL-13 to increase Ca^2+-activated Cl^− conductance (CaCC) activity. For Isc measurements, cells were sequentially treated with amiloride to inhibit the epithelial sodium channel (ENaC), forskolin to activate the cystic fibrosis transmembrane conductance regulator (CFTR), CFTRinh-172 to inhibit CFTR, and ATP to activate CaCC. In the absence of PDSinh-A01, ion channel modulators produced the anticipated changes in Isc (FIG. 4A).
IL-13-treated HBE cells were cultured on Snapwell clear permeable supports (12 mm diameter, 0.4 μm polyester membrane, Costar, Corning, Corning, N.Y.). Short-circuit current was measured using symmetrical HCO3^−-buffered solutions (in mM: 120 NaCl, 5 KCl, 1 MgCl2, 1 CaCl2, 5 Hepes, 25 NaHCO3; pH 7.4) as described, with ion transport modulators added to both apical and basolateral bathing solutions. Cells were equilibrated with 95% O2/5% CO2 and maintained at 37° C. during data acquisition. Statistical analysis was by Student's t-test.

[1] = tested on: HBE and CFBE cell cultures; experiment: ASL depth by confocal imaging of rhodamine B-dextran in HBE and CFBE cultures; type: cell-based, human; conditions: 25 μM, 4-6 hours
Description: ASL depth was measured in HBE and CFBE cell cultures under basal conditions and with chronic IL-13-treatment. […] Treatment of HBE and CFBE cell cultures with IL-13 produced a significant increase in ASL depth to ˜16 μm. Remarkably, treatment of IL-13-treated HBE and CFBE cell cultures with PDSinh-A01 produced a significant further increase in ASL depth of ˜8 μm (FIG. 6A, right; summary in FIG. 6B). Pendrin inhibition thus causes ASL hydration in IL-13-treated HBE and CFBE cell cultures, providing pharmacological evidence for pendrin as a key regulator of ASL hydration in airway cell cultures exposed to an inflammatory stimulant.
ASL depth was measured by confocal imaging of rhodamine B-dextran fluorescence (20 μl of 0.1 mg/ml in PBS) applied 4-6 h prior to measurement. Scanning confocal microscopy was done using an upright Nikon EZ-C1 confocal microscope equipped with a LUMplan FL N 60×/1.00w objective (Olympus, Waltham, Mass.). […] In some experiments ASL depth was measured after treatment with 25 μM PDSinh-A01 in the culture medium for 4-6 hours. ASL depth was measured using a multi-point histogram method in which each confocal z-stack was fitted to a quadratic function, as described and validated previously.

SMILES	IC50 (murine pendrin) [nM]	effect on CaCC activity (Isc response) (CaCC)	further increase in ASL depth, IL-13-treated cultures ([1]; IL-13-treated) [μm]	effect on ASL depth, basal conditions ([1]; no IL-13)
Cc1n[nH]c(-c2cc(S(=O)(=O)NC3CCCc4ccccc43)c(C)s2)c1C (stereo not shown) [PDSinh-C01]	~1200	–	–	–
Cn1nc(COc2cccc(F)c2)c2c1CCN(C(=O)Nc1ccc(Cl)cc1)C2 [PDSinh-A01]	–	did not affect the activity	~8	did not significantly change
